Experimental data published in patent publication US20130109712A1, “Statins for the Prevention or Treatment of Drug Addictions” (Universite de Poitiers, priority 2010, published 2013).

Key:
cocaine-seeking behavior = assay: Cocaine-seeking test (extinction session) after cocaine self-administration and 20-day abstinence; assay type: in vivo, Sprague-Dawley rats; conditions: rats, simvastatin 1 mg/kg i.p. daily for 20 days of abstinence, 3 h extinction test
[1] = test system: nicotine-seeking behavior; assay: Nicotine-seeking test (extinction session) after nicotine self-administration and 20-day abstinence; assay type: in vivo, Sprague-Dawley rats; conditions: rats, simvastatin 1 mg/kg i.p. daily for 20 days of abstinence; 1 h extinction test; control approx. 100 active nose pokes
Description: Thus, the logic of the experiment is the following: • 1) the rats acquire self-administration under similar conditions; • 2) during withdrawal from self-administration, they are separated and receive, once a day for 20 days, an injection of simvastatin (1 mg/kg i.p) or a control solution; • 3) they are tested in a drug-seeking protocol in which their responses are not reinforced by the drug. Adult male (11-12 weeks old) Sprague-Dawley rats (Janvier, France), experimentally naive at the beginning of the study, are placed in the animal house with controlled temperature and degree of humidity, and are kept in a 12-hour light/dark cycle (light active at 7 am). As soon as they arrive, the rats are placed in cages in groups of 3 for one week, before beginning the surgery, consisting of the implantation of a catheter in the jugular vein. After the surgery and during the rest of the experiment, the rats are placed in cages individually. All the experiments are carried out during the “day” phase, in accordance with EC regulations for the use of animals in research (86/609/EEC). For the nicotine, 24 self-administration sessions are carried out using a fixed ratio 1 or 3 (FR1 or FR3) schedule of reinforcement, i.e., during the sessions, respectively one or three nose pokes in the active hole deliver an i.v. injection of nicotine. […]

CCC(C)(C)C(=O)O[C@H]1C[C@@H](C)C=C2C=C[C@H](C)[C@H](CC[C@@H]3C[C@@H](O)CC(=O)O3)[C@H]21 [simvastatin]
reduction in cocaine-seeking behavior vs control (cocaine-seeking behavior): 45% | number of active nose pokes (drug-seeking behavior) (cocaine-seeking behavior; control approx. 350): approximately 190 active nose pokes | reduction in nicotine-seeking behavior vs control [1]: approximately 50%
